pIC50: −log10 of the molar value. Counter-ions that a name gives are not always drawn.
The molecules below were run against T1, DPP-IV (Homo sapiens, UniProt P27487) (assay: In vitro assay for dipeptidyl peptidase inhibition). Details: Examples 156-162; n-value in brackets; IC50's or percent inhibition at 300 nM; read-out: DPP-IV inhibition.
T1 construct: purchased Enzyme Systems Products SPE-01
Type: biochemical

T1 sequence (P27487 whole entry, species assumed): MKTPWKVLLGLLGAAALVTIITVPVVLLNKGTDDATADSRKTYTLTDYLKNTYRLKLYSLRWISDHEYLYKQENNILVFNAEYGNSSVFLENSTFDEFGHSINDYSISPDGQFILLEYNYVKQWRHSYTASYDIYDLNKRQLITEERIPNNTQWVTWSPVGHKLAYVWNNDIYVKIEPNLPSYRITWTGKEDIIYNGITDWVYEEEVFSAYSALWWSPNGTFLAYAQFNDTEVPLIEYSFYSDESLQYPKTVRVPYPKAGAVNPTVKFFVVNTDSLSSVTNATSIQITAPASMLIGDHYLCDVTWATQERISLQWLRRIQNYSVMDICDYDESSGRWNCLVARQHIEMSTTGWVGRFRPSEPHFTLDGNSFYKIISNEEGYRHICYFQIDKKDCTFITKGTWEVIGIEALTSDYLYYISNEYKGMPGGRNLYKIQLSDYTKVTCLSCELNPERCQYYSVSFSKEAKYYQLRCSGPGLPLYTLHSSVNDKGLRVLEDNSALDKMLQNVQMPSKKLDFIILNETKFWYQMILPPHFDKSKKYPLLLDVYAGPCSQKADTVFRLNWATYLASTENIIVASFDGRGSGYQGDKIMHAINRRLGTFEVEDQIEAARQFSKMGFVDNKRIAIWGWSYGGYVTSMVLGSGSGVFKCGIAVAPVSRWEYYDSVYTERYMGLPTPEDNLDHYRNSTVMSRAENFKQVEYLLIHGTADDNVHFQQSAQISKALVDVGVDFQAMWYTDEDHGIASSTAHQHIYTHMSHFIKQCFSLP

Row | Structure (SMILES) | pIC50
1 | COc1ccc2oc(C(=O)N3C[C@H](N)[C@@H](N4CCCCC4=O)C3)cc2c1 [Example 159, 1-[(3S,4S)-4-Amino-1-(5-methoxy-benzofuran-2-carbonyl)-pyrrolidin-3-yl]-piperidin-2-onehydrochloride] | 7.10
2 | N[C@H]1CN(C(=O)c2cc3cc(Cl)ccc3o2)C[C@@H]1N1CCCCC1=O [Example 157, 1-((3S,4S)-4-amino-1-(5-chlorobenzofuran-2-carbonyl)pyrrolidin-3-yl)piperidin-2-onetrifluoroacetate] | 6.67

Same assay, conditions: at 300 nM; n-value given in brackets; read-out: DPP-IV Percent Inhibition at 300 nM

Row | Structure (SMILES) | inhibition at 0.3 µM [%]
3 | CC(C)C(C)Oc1cc(N2C[C@H](N)[C@@H](N3CCCCC3=O)C2)ncn1 (stereo partly drawn) [Example 95, 1-((3S,4S)-4-Amino-1-(6-(3-methylbutan-2-yloxy)pyrimidin-4-yl)pyrrolidin-3-yl)piperidin-2-one trifluoroacetate] | 17.7
4 | N[C@H]1CN(c2cc(N3Cc4cc(Cl)c(Cl)cc4C3)ncn2)C[C@@H]1N1CCCCC1=O [Example 54, 1-((3S,4S)-4-amino-1-(6-(5,6-dichloroisoindolin-2-yl)pyrimidin-4-yl)pyrrolidin-3-yl)piperidin-2-one] | 32.6
5 | N[C@H]1CN(c2cc(OCC(F)(F)F)ncn2)C[C@@H]1N1CCCCC1=O [Example 92, 1-((3S,4S)-4-Amino-1-(6-(2,2,2-trifluoroethoxy)pyrimidin-4-yl)pyrrolidin-3-yl)piperidin-2-one trifluoroacetate] | 28.9
6 | Cn1nc(C(F)(F)F)c2c1CCN(c1ncnc(N3C[C@H](N)[C@@H](N4CCCCC4=O)C3)n1)C2 [Example 67, 1-((3S,4S)-4-amino-1-(4-(1-methyl-3-(trifluoromethyl)-6,7-dihydro-1H-pyrazolo[4,3-c]pyridin-5(4H)-yl)-1,3,5-triazin-2-yl)pyrrolidin-3-yl)piperidin-2-one] | 17.9

Same assay, conditions: n-value given in brackets; read-out: DPP-IV IC50

Row | Structure (SMILES) | pIC50
7 | CC(C)(C)c1nc(N2C[C@H](N)[C@@H](N3CCCCC3=O)C2)cc(N2CCC(F)(F)C2)n1 [Example 22, 1-((3S,4S)-4-amino-1-(2-tert-butyl-6-(3,3-difluoropyrrolidin-1-yl)pyrimidin-4-yl)pyrrolidin-3-yl)piperidin-2-one] | 6.08
8 | N[C@H]1CN(c2cc(Oc3cccc(F)c3)ncn2)C[C@@H]1N1CCCCC1=O [Example 88, 1-((3S,4S)-4-amino-1-(6-(3-fluorophenoxy)pyrimidin-4-yl)pyrrolidin-3-yl)piperidin-2-one] | 6.50
9 | COc1ccc(-c2cc(N3C[C@H](N)[C@@H](N4CC(F)(F)CCC4=O)C3)ncn2)cn1 [Example 9, 1-((3S,4S)-4-amino-1-(6-(6-methoxypyridin-3-yl)pyrimidin-4-yl)pyrrolidin-3-yl)-5,5-difluoropiperidin-2-one trifluoroacetate] | 7.56
10 | COc1nc(OC)nc(N2C[C@H](N)[C@@H](N3CCCCC3=O)C2)n1 [Example 147, 1-[(3S,4S)-4-Amino-1-(4,6-dimethoxy-[1,3,5]triazin-2-yl)-pyrrolidin-3-yl]-piperidin-2-onetrifluoroacetate] | 6.88
11 | N[C@H]1CN(c2ncnc3cc(Oc4ccc(OC(F)(F)F)cc4)ccc23)C[C@@H]1N1CCCCC1=O [Example 131, 1-((3S,4S)-4-amino-1-(7-(4-(trifluoromethoxy)phenoxy)quinazolin-4-yl)pyrrolidin-3-yl)piperidin-2-oneformate] | 6.72
12 | N[C@H]1CN(c2cc(-c3ccccc3)ncn2)C[C@@H]1N1CC(F)(F)CCC1=O [Example 82, 1-((3S,4S)-4-amino-1-(6-phenylpyrimidin-4-yl)pyrrolidin-3-yl)-5,5-difluoropiperidin-2-one trifluoroacetate] | 7.54
13 | N[C@H]1CN(c2ncnc3cc(OCC(F)(F)F)ccc23)C[C@@H]1N1CCCCC1=O [Example 122, 1-((3S,4S)-4-amino-1-(7-(2,2,2-trifluoroethoxy)quinazolin-4-yl)pyrrolidin-3-yl)piperidin-2-one] | 6.83
14 | CS(=O)(=O)c1ccccc1S(=O)(=O)Oc1ccc2c(N3C[C@H](N)[C@@H](N4CCCCC4=O)C3)ncnc2c1 [Example 96, 4-((3S,4S)-3-amino-4-(2-oxopiperidin-1-Vl)pyrrolidin-1-yl)quinazolin-7-yl 2-(methylsulfonyl)benzenesulfonate] | 8.70
15 | N[C@H]1CN(c2ncnc(N3CCCCC3)n2)C[C@@H]1N1CCCCC1=O [Example 47, 1-[(3S,4S)-4-Amino-1-(4-piperidin-1-yl-[1,3,5]triazin-2-yl)-pyrrolidin-3-yl]-piperidin-2-onetrifluoroacetate] | 6.50
16 | N[C@H]1CN(c2cc(N3CCc4[nH]ncc4C3)ncn2)C[C@@H]1N1CCCC1=O [Example 66, 1-((3S,4S)-4-Amino-1-(6-(6,7-dihydro-1H-pyrazolo[4,3-c]pyridin-5(4H)-yl)pyrimidin-4-yl)pyrrolidin-3-yl)pyrrolidin-2-onedihydrochloride] | 6.40
17 | CCC(CC)c1ccc2c(N3C[C@H](N)[C@@H](N4CCCCC4=O)C3)ncnc2c1 [Example 117, 1-((3S,4S)-4-amino-1-(7-(pentan-3-yl)quinazolin-4-yl)pyrrolidin-3-yl)piperidin-2-one] | 6.69
18 | N[C@H]1CN(c2ncnc(N3CCC(F)(F)C3)n2)C[C@@H]1N1CCCCC1=O [Example 11, 1-{(3S,4S)-4-Amino-1-[4-(3,3-difluoro-pyrrolidin-1-yl)-[1,3,5]triazin-2-yl]-pyrrolidin-3-yl}-piperidin-2-onedihydrochloride] | 7.43
19 | N[C@H]1CN(c2ncnc3c2ncn3CC(F)(F)F)C[C@@H]1N1CCCCC1=O [Example 149, 1-{(2S,4S)-4-Amino-1-[9-(2,2,2-trifluoro-ethyl)-9H-purin-6-yl]-pyrrolidin-3-yl}-piperidin-2-onehydrochloride] | 6.30
20 | CCS(=O)(=O)Oc1ccc2c(N3C[C@H](N)[C@@H](N4CCCCC4=O)C3)ncnc2c1 [Example 134, 4-((3S,4S)-3-amino-4-(2-oxopiperidin-1-yl)pyrrolidin-1-yl)quinazolin-7-yl ethanesulfonate] | 6.66
21 | CCSc1nc(N2C[C@H](N)[C@@H](N3CCCCC3=O)C2)cc(N2CCC(F)(F)C2)n1 [Example 20, 1-((3S,4S)-4-amino-1-(6-(3,3-difluoropyrrolidin-1-yl)-2-(ethylthio)pyrimidin-4-yl)pyrrolidin-3-yl)piperidin-2-one] | 7.08
22 | Cc1nc(N2CC[C@H](F)C2)cc(N2C[C@H](N)[C@@H](N3CC(F)(F)CCC3=O)C2)n1 [Example 26, 1-((3S,4S)-4-amino-1-(6-((S)-3-fluoropyrrolidin-1-yl)-2-methylpyrimidin-4-yl)pyrrolidin-3-yl)-5,5-difluoropiperidin-2-one] | 7.43
23 | N[C@H]1CN(c2cc(N3CCc4ccccc4CC3)ncn2)C[C@@H]1N1CCCC1=O [Example 61, 1-((3S,4S)-4-Amino-1-(6-(1,2,4,5-tetrahydrobenzo[d]azepin-3-yl)pyrimidin-4-yl)pyrrolidin-3-yl)pyrrolidin-2-onehydrochloride] | 6.10
24 | N[C@H]1CN(c2cc(N3CCc4nocc4C3)ncn2)C[C@@H]1N1CC(F)(F)CCC1=O [Example 4, 1-((3S,4S)-4-amino-1-(6-(6,7-dihydroisoxazolo[4,3-c]pyridin-5(4H)-yl)pyrimidin-4-yl)pyrrolidin-3-yl)-5,5-difluoropiperidin-2-one] | 8.22
25 | N[C@H]1CN(c2ncnc3cc(Oc4cccc(F)c4)ccc23)C[C@@H]1N1CCCCC1=O [Example 120, 1-((3S,4S)-4-amino-1-(7-(3-fluorophenoxy)quinazolin-4-yl)pyrrolidin-3-yl)piperidin-2-oneformate] | 7.10
26 | N[C@H]1CN(c2ncnc(N3CCCC3)n2)C[C@@H]1N1CCCCC1=O [Example 32, 1-((3S,4S)-4-Amino-1-(4-(pyrrolidin-1-yl)-1,3,5-triazin-2-yl)pyrrolidin-3-yl)piperidin-2-onetrifluoroacetate] | 7.04
27 | CC(C)Oc1ccc2c(N3C[C@H](N)[C@@H](N4CC(F)(F)CCC4=O)C3)ncnc2c1 [Example 100, 1-((3S,4S)-4-amino-1-(7-isopropoxyquinazolin-4-yl)pyrrolidin-3-yl)-5,5-difluoropiperidin-2-one] | 7.35
28 | N#CCCc1ccc2c(N3C[C@H](N)[C@@H](N4CCCCC4=O)C3)ncnc2c1 [Example 118, 3-(4-((3S,4S)-3-amino-4-(2-oxopiperidin-1-yl)pyrrolidin-1-yl)quinazolin-7-yl)propanenitrile] | 7.07
29 | N[C@H]1CN(c2ncnc(NC3CCCCC3)n2)C[C@@H]1N1CCCCC1=O [Example 75, 1-[(3S,4S)-4-Amino-1-(4-cyclohexylamino-[1,3,5]triazin-2-yl)-pyrrolidin-3-yl]-piperidin-2-onetrifluoroacetate] | 6.77
30 | N[C@H]1CN(c2nncc3ccccc23)C[C@@H]1N1CCCCC1=O [Example 145, 1-((3S,4S)-4-amino-1-(phthalazin-1-yl)pyrrolidin-3-yl)piperidin-2-one trifluoroacetate] | 6.65
31 | N[C@H]1CN(c2ncnc3cc(OC(F)F)ccc23)C[C@@H]1N1CCCCC1=O [Example 124, 1-((3S,4S)-4-amino-1-(7-(difluoromethoxy)quinazolin-4-yl)pyrrolidin-3-yl)piperidin-2-one] | 7.48
32 | Cc1nc(N2C[C@H](N)[C@@H](N3CC(F)(F)CCC3=O)C2)cc(N2CCCC(F)(F)C2)n1 [Example 33, 1-((3S,4S)-4-amino-1-(6-(3,3-difluoropiperidin-1-yl)-2-methylpyrimidin-4-yl)pyrrolidin-3-yl)-5,5-difluoropiperidin-2-onetrifluoroacetate] | 7.01
33 | N[C@H]1CN(c2ncnc(N3CCc4nocc4C3)n2)C[C@@H]1N1CCCCC1=O [Example 76, 1-{(3S,4S)-4-Amino-1-[4-(6,7-dihydro-4H-isoxazolo[4,3-c]pyridine-5-yl)-[1,3,5]triazin-2-yl]-pyrrolidin-3-yl}-piperidin-2-one trifluoroacetate] | 7.63
34 | N[C@H]1CN(c2cc(N3CCc4cncnc4C3)ncn2)C[C@@H]1N1CCCC1=O [Example 63, 1-((3S,4S)-4-Amino-1-(6-(5,6-dihydropyrido[3,4-d]pyrimidin-7(8H)-yl)pyrimidin-4-yl)pyrrolidin-3-yl)pyrrolidin-2-onedihydrochloride] | 5.70

From patent US7485641B2, “Substituted 3-amino-pyrrolidino-4-lactams” (Pfizer, Inc., priority 2006, dated 2009)
